Reference: PMC11587516 (ACS Chemical Neuroscience, 2024)
Numbering of substitutions follows the chain as printed.

Experiments:
Type in all cases: cell-based
hBGT1 E52A = target: T1, hBGT1 E52A (Homo sapiens, UniProt P48065, E52A); experiment: [3H]GABA uptake assay, hBGT1 mutant E52A in tsA201 cells
T1 construct: host or cells: tsA201 cells (transformed HEK293), transient expression
T1 sequence (P48065 1-614 E52A): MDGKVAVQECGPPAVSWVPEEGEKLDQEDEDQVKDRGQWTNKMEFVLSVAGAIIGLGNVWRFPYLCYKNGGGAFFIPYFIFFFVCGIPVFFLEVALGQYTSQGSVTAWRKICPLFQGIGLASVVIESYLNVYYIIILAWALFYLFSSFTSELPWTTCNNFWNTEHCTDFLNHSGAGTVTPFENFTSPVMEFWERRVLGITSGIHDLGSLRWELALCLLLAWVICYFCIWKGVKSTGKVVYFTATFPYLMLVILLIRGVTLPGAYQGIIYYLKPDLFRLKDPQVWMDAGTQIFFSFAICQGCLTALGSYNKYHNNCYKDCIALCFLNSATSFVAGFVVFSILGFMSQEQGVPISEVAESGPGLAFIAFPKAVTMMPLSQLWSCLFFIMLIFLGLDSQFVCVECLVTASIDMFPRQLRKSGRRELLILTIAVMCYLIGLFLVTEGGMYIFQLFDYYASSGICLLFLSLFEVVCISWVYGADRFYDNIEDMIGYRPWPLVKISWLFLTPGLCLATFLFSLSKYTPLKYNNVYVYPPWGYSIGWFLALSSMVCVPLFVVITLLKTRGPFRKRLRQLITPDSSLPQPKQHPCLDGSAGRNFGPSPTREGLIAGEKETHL
Description: (§1) To validate the molecular modeling, particularly the crucial interactions with the Glu52 and Gln299 residues, the activity of compound 9 was tested on the following hBGT1 mutants: E52A, E52Y, Q299L, and the double mutant E52A+Q299L (Figure 5 and Table 1).[14]
(§2) The CHO cells were placed in 96-well plates (approximately 50,000 cells/well) for about 24 h before the experiment. […] After incubation, cells were washed 3 times with 100 μL/well ice-cold assay buffer, 150 μL/well MicroScint20 (PerkinElmer) was subsequently added before the plate was shaken for at least 1 h. The radioactivity of each well of the plate was measured on a TopCount NXT scintillation counter. […] Data presented are the pooled data of at least three independent experiments with three technical replicates if not stated otherwise in figure legends. Concentration–response curves were fitted by nonlinear regression to the sigmoidal concentration–response model with GraphPad Prism v 9.0.
(§3) The tsA201 cell line (a transformed HEK293 cell line) has been described previously and was cultured accordingly.[20] The tsA201 cells used for transient expression of hBGT1 mutants were transfected with DNA constructs (8 μg per 10 cm plate) using 40 μL of PolyFect transfection reagent according to the manufacturer’s protocol (Qiagen). […]

hBGT1 E52Y = target: T2, hBGT1 E52Y (Homo sapiens, UniProt P48065, E52Y); experiment: [3H]GABA uptake assay, hBGT1 mutant E52Y in tsA201 cells
T2 construct: host or cells: tsA201 cells (transformed HEK293), transient expression
T2 sequence (P48065 1-614 E52Y): T1 sequence (P48065 1-614 E52A) with A52Y
Description: as §1, §2, §3

hBGT1 Q299L = target: T3, hBGT1 Q299L (Homo sapiens, UniProt P48065, Q299L); experiment: [3H]GABA uptake assay, hBGT1 mutant Q299L in tsA201 cells
T3 construct: HA; expressed in transfected cells; host or cells: tsA201 cells (transformed HEK293), transient expression
T3 sequence (P48065 1-614 Q299L): T1 sequence (P48065 1-614 E52A) with A52E, Q299L
Description: as §1, §2, §3

[1] = test system: normal human astrocytes (NHA); experiment: Confocal imaging of astrocyte morphology after incubation in PBS (non-GABA conditions); details: 500 μM in PBS, non-GABA environment; 72 h
Description: To this end, we tested whether blocking the transport of GABA under experimental non-GABA extracellular conditions may impair the homeostasis of these cells. […] Afterward, the cells were stained to visualize actin filaments using confocal microscopy. […] Nevertheless, further kinetic studies are necessary to verify this hypothesis.
NHA was grown on a coverslip in a 35 mm culture dish. After treatment, the cells were fixed (4% paraformaldehyde) and permeabilized (0.1% Triton X-100). Then, the samples were stained with Phalloidin-Atto 565 (Sigma-Aldrich, Inc.) according to the manufacturer’s protocol. Laser confocal microscope Nikon Eclipse Ti-E A1R-Si and Nikon NIS Elements AR software were used for cell imaging.

NC12CC(C(=O)O)(C1)C2 [Compound 9]
IC50 (hBGT1 E52A): 64.2 µM
decrease in activity compared with wild type hBGT1 (hBGT1 E52A; E52A vs wt): ~2 fold
IC50 (hBGT1 E52Y): > 1000 µM
activity at mutant compared with wild type hBGT1 (hBGT1 E52Y; E52Y vs wt): complete loss of activity
IC50 (hBGT1 Q299L): 73.5 µM
decrease in activity compared with wild type hBGT1 (hBGT1 Q299L; Q299L vs wt): more than 2 fold
astrocyte morphology (actin staining) [1]: cell shrinkage and a loss of cell-to-cell contact
